This note sets out measurements from patent US11512056B2 (Anhui New Star Pharmaceutical Development Co., Ltd, priority 2018, dated 2022).

Structures are written as SMILES. Several values for one entry are separate records, joined by “and”; a condition that tells them apart may be missing. Equal values may be shown once.

Test [1] concerns human platelets. The test is described as follows: ADP-induced aggregation of human platelets (PRP, turbidimetric). The conditions noted are these: for IC50: read-out: IC50 of compound on ADP-induced platelet aggregation rate. The class given is cell-based. On the procedure: Volunteers' whole blood was drawn from venous blood with 1:6 dextro-citrate ACD (85 mmol/L sodium citrate, 71.38 mmol/L citrate, 27.78 mmol/L glucose) for anticoagulation, and centrifuged at 300 g at room temperature for 10 minutes, platelet rich plasma (PRP) was separated.
(§1) The turbidimetric platelet aggregation test was performed on the Chrono-Log Company's dual-channel optical platelet aggregation instrument. The speed of the icon recorder was set to 1 cm/min, and the aggregation curve was recorded. First, the platelet aggregator was preheated to 37° C., 400 μL platelet suspension and stir bar were added to the turbidity tube, use PPP as a reference, and traced the baseline under constant magnetic stirring at 37° C. After the baseline was stable, with experiment plan, different concentrations of antagonists or other reagents were added to treat platelets for 2 minutes, and then the inducer ADP was added to observe and record changes in the aggregation curve.

Test [2] has as its system human platelets. The test can be described thus: Thrombin-induced human platelet aggregation (PRP, turbidimetric). The class given is cell-based. Particulars: for IC50: read-out: IC50 on thrombin-induced platelet aggregation rate. On the procedure: Volunteers' whole blood was drawn from venous blood with 1:6 D-citrate ACD (85 mmol/L sodium citrate, 71.38 mmol/L citrate, 27.78 mmol/L glucose) for anticoagulation, and centrifuged at 300 g at room temperature for 10 minutes, platelet rich plasma (PRP) was separated.
as §1, with “C., and” for “C.,”, “tube,” for “tube, use”, “PPP was used” for “PPP”, “baseline is” for “baseline was”, “with the” for “with”

The subject of test [3] is human platelets. The test can be described thus: Collagen-induced aggregation of human platelets (PRP, turbidimetric). The class given is cell-based. Particulars: for IC50: read-out: IC50 of compound on collagen-induced platelet aggregation rate. As for the experimental part:
Volunteers' whole blood was drawn from venous blood with 1:6 dextro-citrate ACD (85 mmol/L sodium citrate, 71.38 mmol/L citrate, 27.78 mmol/L glucose) for anticoagulation, and centrifuged at 300 g at room temperature for 10 Minutes, separate platelet rich plasma (PRP).
The turbidimetric platelet aggregation test was performed on the Chrono-Log Company's dual-channel optical platelet aggregation instrument. The speed of the icon recorder was set to 1 cm/min, and the aggregation curve was recorded. First, the platelet aggregator was preheated to 37° C., and 400 μL platelet suspension and stir bar were added to the turbidity tube, PPP was used as a reference, and traced the baseline under constant magnetic stirring at 37° C. After the baseline was stable, with the experiment plan, different concentrations of antagonist or other reagents were added to treat platelets for 2 minutes, and then inducer collagen was added to observe and record changes in the aggregation curve.
The platelet aggregation rate of the solvent control group was set to be 100%. The inhibitory effects of the compounds on normal human platelet aggregation induced by collagen at different concentrations were as follows: […]

Another test has as its system platelets (rabbit blood). The test is described as follows: Inhibition of platelet aggregation in vitro (rabbit blood), ADP-induced, turbidimetric. The conditions noted are these: Oryctolagus cuniculus, rabbit PRP, ADP final concentration 10 μM. The class given is cell-based, New Zealand white rabbits. From the text:
Blood was collected from New Zealand white rabbits (body weight 1-1.5 kg). After the animal was anesthetized with 10% chloral hydrate, the animal was placed supinely on the rabbit board, precordial hair was cut off, and the skin was disinfected with iodine and alcohol. Touch with left hand the 3rd to 4th intercostal space on the left edge of the sternum. Chose the most obvious place for the puncture point. Held the syringe in right hand and insert the needle into the chest cavity. Inserted the needle into the heart and then draw out the blood when feel the heart beating through the needle. […] assay system with a total volume of 300 μL, that is, 280 μL of diluted PRP was taken and placed in a turbidimetric tube, and was incubated with 10 μL of drug or solvent control at 37° C. for 5 minutes, and then 10 μL of different inducers such ADP (final concentration 10 μM) were added to determine the maximum platelet aggregation rate within 5 minutes. Repeation was taken at least three times […].
Platelet-rich plasma (PRP) was obtained by centrifuging blood at 1200 rpm for 10 minutes, and platelet aggregation was measured as described above. […] The platelet density in PRP is counted with a hemocytometer and diluted with platelet-poor plasma (PPP). […]

Setting [4] is: Homo sapiens, Platelet, column 1.
[5] abbreviates: Homo sapiens, Platelet, column 2.
[6] abbreviates: Homo sapiens, Platelet, column 3.

The term inhibition denotes the drop in the measured response relative to a control, in per cent. What is called IC50 is the concentration that gives 50% inhibition. As for `CCCSc1nc(N[C@@H]2C[C@H]2c2ccc(F)c(F)c2)c2nnn([C@@H]3C[C@H](OCCO)[C@@H](O)[C@H]3O)c2n1` [Ticagrelor, reference compound], the “Aggregation inhibition rate %” value was 13.69% with human platelets [1] (10 μM ADP, concentration 0.03 μM); 15.06% with human platelets [1] (10 μM ADP, concentration 0.1 μM); 20.54% in the test on human platelets [1] (10 μM ADP, concentration 0.3 μM); 57.53% with human platelets [1] (10 μM ADP, concentration 1 μM); 86.30% in the test with human platelets [1] (10 μM ADP, concentration 3 μM); 69.84% and 49.33% and 92.53% in the test on human platelets [2] (0.5 U/ml thrombin, concentration 3 μM, 3 µM). The “Aggregation inhibition rate %” value is 80.95% and 55.41% in the test with human platelets [2] (0.5 U/ml thrombin, concentration 10 μM, 10 µM); 81.33% in the test on human platelets [2] (0.5 U/ml thrombin, concentration 20 μM, 20 µM); 4.23% and 1.45% in the test on human platelets [3] (1 μg/ml collagen, concentration 0.003 μM, 0.003 µM); 8.69% and 2.98% and 9.86% in the test with human platelets [3] (1 μg/ml collagen, concentration 0.01 μM, 0.01 µM); 8.95% and 15.49% in the test on human platelets [3] (1 μg/ml collagen, concentration 0.03 μM, 0.03 µM); 66.17% and 64.78% in the test with human platelets [3] (1 μg/ml collagen, concentration 3 μM, 3 µM). For the same compound, the “Aggregation inhibition rate %” value in the test with human platelets [3] (1 μg/ml collagen, concentration 10 μM, 10 µM) was 75% and 92.95%. In addition, in the test on human platelets [1] (Homo sapiens, Platelet, 10 μM ADP, concentration 0.005 μM, read-out: Aggregation inhibition rate %), the inhibition at 0.005 µM was 0%. Moreover, the inhibition at 0.01 µM is 4.11% in the test on human platelets [1] (Homo sapiens, Platelet, 10 μM ADP, concentration 0.01 μM, read-out: Aggregation inhibition rate %) and 0% in the test on human platelets [2] (Homo sapiens, Platelet, 0.5 U/ml thrombin, concentration 0.01 μM, read-out: Aggregation inhibition rate %). Also, the inhibition at 3 µM with human platelets [1] (Homo sapiens, Platelet, 10 μM ADP, concentration 3 μM, read-out: Aggregation inhibition rate %) is 100%; with human platelets [3] (Homo sapiens, Platelet, 1 μg/ml collagen, concentration 3 μM, read-out: Aggregation inhibition rate %) it was 75.4%. The inhibition at 5 µM in the test on human platelets [1] (Homo sapiens, Platelet, 10 μM ADP, concentration 5 μM, read-out: Aggregation inhibition rate %) amounted to 100%. Also, the inhibition at 10 µM in the test with human platelets [1] (Homo sapiens, Platelet, 10 μM ADP, concentration 10 μM, read-out: Aggregation inhibition rate %) was found to be 100%; with human platelets [3] (Homo sapiens, Platelet, 1 μg/ml collagen, concentration 10 μM, read-out: Aggregation inhibition rate %), 82.6%. For the same compound, the 50% inhibitory concentration (IC50) in the test with human platelets [1] (setting [4]) was 72 nM; with human platelets [1] (setting [5]), 963 nM; in the test on human platelets [1] (setting [6]), 261 nM; in the test on human platelets [2] (setting [4]) it was 851 nM; in the test on human platelets [2] (setting [5]), 4020 nM; with human platelets [2] (setting [6]) it was 161 nM. For the same compound, the IC50 in the test on human platelets [3] (setting [4]) worked out at 888 nM; in the test on human platelets [3] (setting [5]), 532 nM; in the test on human platelets [3] (setting [6]), 908 nM. Also, the inhibition at 0.003 µM in the test with human platelets [2] (Homo sapiens, Platelet, 0.5 U/ml thrombin, concentration 0.003 μM, read-out: Aggregation inhibition rate %) worked out at 0%. Besides, the inhibition at 20 µM came to 95.2% with human platelets [2] (Homo sapiens, Platelet, 0.5 U/ml thrombin, concentration 20 μM, read-out: Aggregation inhibition rate %) and 100% with human platelets [3] (Homo sapiens, Platelet, 1 μg/ml collagen, concentration 20 μM, read-out: Aggregation inhibition rate %). In addition, the inhibition at 0.03 µM with human platelets [3] (Homo sapiens, Platelet, 1 μg/ml collagen, concentration 0.03 μM, read-out: Aggregation inhibition rate %) is 13%.
Compound `CCC(=O)NC(=N)Nc1ccc(C2=NNC(=O)CC2C)cc1` (centres unmarked) showed a 50% inhibitory concentration (IC50) in the test with platelets (rabbit blood) of 334 nM.
